Reference: US20190381015A1, “PHARMACEUTICAL USE OF BERBERINE” (priority 2016, published 2019)
“Also recorded” adds a separate entry of the source.

What was measured:
[1] = tested on: acute myocardial infarction; experiment: Cardiac failure in patients with acute myocardial infarction / ischemic cardiomyopathy; format: in vivo, human
Excerpt: 40 patients with acute myocardial infarction were randomly divided into a control group and a berberine group (0.3 g, three times a day, three months later). The mean left ventricular ejection fraction of the control group is 41%, while the mean left ventricular ejection fraction of the berberine group is increased to 53% (p=0.037).

in-stent restenosis = experiment: In-stent restenosis in patients with drug-eluting stent implantation; format: in vivo, human
Method: FIG. 5 is an experimental control diagram of berberine in the prevention and treatment of in-stent restenosis.
100 patients with drug-eluting stent implantation were randomly divided into two groups: a control group (without additional berberine) and a berberine group (additionally administered with berberine at 0.3 g/d since the 3th month after surgery for a total of 6 months), and coronary angiography was performed again at the 12th month after surgery.

[2] = tested on: idiopathic pulmonary hypertension; experiment: Clinical experiment in patients with idiopathic pulmonary hypertension; format: in vivo, human; conditions: berberine 0.3 g/d for 3 months added to original targeted drugs, 3 per group
Excerpt: FIG. 4 is a histogram of contrast experiment data showing that berberine reduces the mean pulmonary arterial pressure. […] Every three data columns in the figure are a group, and are a normal group, a blank group, and a berberine group from left to right in sequence.
Six patients with idiopathic pulmonary hypertension were divided into two groups (3 in each group): a control group (administered with targeted drugs according to the original doses) and a berberine group (based on the original targeted drugs, additionally administered with berberine at 0.3 g/d for a total of 3 months).

[3] = tested on: pulmonary arterial smooth muscle cells; experiment: Noradrenaline-stimulated pulmonary arterial smooth muscle cells: Grk2 and LKB1; format: cell-based; conditions: pulmonary arterial smooth muscle cells of normal animals, berberine added for 30 minutes (CTL group), FIG. 1
Method: FIG. 1 is a schematic diagram of berberine inhibiting noradrenaline. The pulmonary arterial smooth muscle cells are stimulated with noradrenaline (NE) for 2 hours and then randomly divided into a berberine group (Ctl group, berberine for 4 hours) and a control group. In the control group, cells are collected at various time points (30 minutes-4 hours) after the grouping, and the protein phosphorylation activities of liver kinase B1 (LKB1) and G-protein coupled receptor kinase 2 (Grk2) are measured. GAPDH is an internal reference protein.

[4] = tested on: myocardial infarction model; experiment: Myocardial infarction animal model; format: in vivo
Excerpt: FIG. 6 is an experimental result diagram showing berberine for prevention and treatment of ischemic cardiomyopathy.
30 animals in the myocardial infarction model were randomly divided into a control group and a berberine group by intragastric gavage.

[5] = tested on: pulmonary hypertension induced by dehydrogenated monocrotaline; experiment: Dehydrogenated monocrotaline-induced pulmonary hypertension in beagles; format: in vivo
Excerpt: FIG. 2 is a mirror view for a contrast experiment of berberine inhibiting pulmonary artery remodeling. Animals with pulmonary hypertension are randomly divided into a normal control group, a berberine group, and a blank group without treatment. Histochemical staining (HE) and vascular endothelial vWF staining, smooth muscle cell staining (SMA).
20 beagles were selected, were subjected to pulmonary hemodynamics measurement, and then were randomly divided into a berberine group ([…]) and a control group (intragastric gavage of a berberine coating, without berberine, 14 days in total). […] Results: the mean pulmonary arterial pressure of only one animal in the berberine group reaches 28 mmHg, and the mean pulmonary arterial pressures of the other 9 animals are all <25 mmHg (19±3.0 mmHg). In contrast, the mean pulmonary arterial pressures of 8 animals in the control group are all >26 mmHg (28.4±2.1 mmHg), one animal for 24.6 mmHg, and the other one for 24.8 mmHg.

[6] = cited from earlier work
[7] = beagles, intragastric gavage 0.1 g/d for 14 days before dehydrogenated monocrotaline 60 mg/kg, retested after 8 weeks, 9 of 10 animals

With `COc1ccc2cc3[n+](cc2c1OC)CCc1cc2c(cc1-3)OCO2` [berberine] the “cardiac cavity, single patient” value ([1]; one patient with acute anterior myocardial infarction, berberine treatment for 3 months, FIG. 7) was “reduced”, the “ejection fraction, single patient” value ([1]; one patient, day 22 after myocardial infarction, then berberine for 3 months, ultrasonic cardiography, FIG. 7) was “significantly increased; also recorded: significant increased” and the “myocardial contractility / systolic function, single patient” value ([1]; one patient, berberine for 3 months, FIG. 7) was “improved; also recorded: significantly enhanced”. For the same molecule, the “mean left ventricular ejection fraction” value ([1]; patients with acute myocardial infarction, 0.3 g three times a day, three months later, control 41%, p=0.037) was 53%, the “stenosis degree in patients with restenosis treated afterwards” value (in-stent restenosis; 7 control patients with restenosis, oral berberine 0.3 g/d for 6 months, followed up 9 months, result in 6 patients, FIG. 5) was “significantly reduced” and the “proportion of in-stent restenosis” value (in-stent restenosis; berberine 0.3 g/d from 3rd month after surgery for 6 months, coronary angiography at 12th month, control 14%, p=0.035) was 4%. The “number of cases showing restenosis” value (in-stent restenosis; berberine 0.3 g/d from 3rd month after surgery for 6 months, coronary angiography at 12th month, control N=7) was 2 cases, the “in-stent restenosis on coronary angiography, single patient” value (in-stent restenosis; patient with severe in-stent restenosis, continuous berberine treatment for 6 months, FIG. 5) was “substantially disappears” and the degree of stenosis (in-stent restenosis; restenosis cases of berberine group, 12th month after surgery, control 76.3±9%, p=0.029) was 58±4%. For the same molecule, the “right ventricular function (right ventricular systolic displacement amplitude, TAPSE)” value ([2]; FIG. 3) was “significantly improved”, the “mean pulmonary arterial pressure” value ([2]; FIG. 4) was “significantly reduced” and the “Grk2 and LKB1 after noradrenaline stimulation” value [3] was “significant decrease”. For the same molecule, the arrangement of cardiomyocytes ([4]; berberine treatment group) was “arranged intactly”, the “apoptotic bodies (electron microscopy)” value ([4]; intragastric gavage, 0.3 g three times a day, three months later, FIG. 6 right A-C) was “decrease” and the “apoptosis of myocardial cells” value ([4]; intragastric gavage, 0.3 g three times a day, three months later, fluorescent staining, FIG. 6 left) was “significantly reduces”. The “proliferation degree of pulmonary arterial smooth muscle / pathological remodeling of pulmonary vasculature” value ([5]; 8 control animals with mean pulmonary arterial pressure >25 mmHg, then berberine intragastric gavage 0.1 g/d for 42 days, at 14 weeks, FIG. 2) was “significantly reduced”, the “mean pulmonary arterial pressure, one animal of the berberine group” value ([5]; beagles, intragastric gavage 0.1 g/d for 14 days before dehydrogenated monocrotaline 60 mg/kg, retested after 8 weeks, 1 of 10 animals) was 28 mmHg and the “mean pulmonary arterial pressures, other 9 animals of the berberine group (bound)” value [5, 7] was under 25 mmHg. The “mean pulmonary arterial pressures, other 9 animals of the berberine group (mean ± spread)” value [5, 7] was 19±3.0 mmHg, the “solubility in benzene, diethyl ether, and chloroform” value ([6]; benzene, diethyl ether, chloroform) was “insoluble” and the “solubility in water” value ([6]; water) was “soluble”.
